Laboratory results: patent publication US20230255939A1, “Antimicrobial Agent for Non-Human Animal” (ISHIHARA SANGYO KAISHA, LTD, priority 2020, published 2023)

Tested on: Malassezia pachydermatis (ATCC14522 strain)
Assay: Malassezia otitis externa effect test (dog) (Test Example 3)
Type: in vivo, dog (Beagle)
Design: Total score (redness, earwax, itching, rash) Immediately before treatment / Total score (redness, earwax, itching, rash) 7 Days after treatment: scale not given here
Conditions: for Microbial count (cfu/ml) 7 Days after treatment: 500 ppm agent solution for 1 minute; for Microbial count (cfu/ml) Immediately before treatment: baseline before 500 ppm agent solution; for Total score (redness, earwax, itching, rash) 7 Days after treatment: 5 mL of 500 ppm agent solution for 1 minute; for Improvement rate (%) of microbial count / Improvement rate (%) of symptom total score: 500 ppm for 1 minute, 7 days after treatment; for Total score (redness, earwax, itching, rash) Immediately before treatment: baseline 7 days after inoculation, before 500 ppm agent solution
Description: Test Example 3: Malassezia Otitis Externa Effect Test (Dog) Test Variety: Beagle (19 to 20-Month-Old)
Test Microbial Strain: Malassezia Pachydermatis (ATCC14522 Strain)
A colony of the Malassezia microbe pre-cultured (7 days, 30° C.) on a Sabouraud agar medium was suspended in sterilized physiological saline (microbial concentration of 1.0 × 10^6 cells/mL), and 0.1 mL of the resulting suspension was inoculated into both ears of the test animal. 7 Days after the inoculation, both ears were filled with 5 mL of an agent solution (sterilized physiological saline solution supplemented with 5% DMSO) prepared to have a concentration of the test compound of 500 ppm, and after 1 minute, thoroughly washed with sterilized physiological saline solution.
At the same time, the number of the Malassezia microbe present inside the ears of the sample was also investigated by the following method.
The surface of the ear canal was scraped three times using a cotton swab to collect the microbe, and the collected microbe was suspended in 1 mL of PBS (containing 8 g of sodium chloride, 2.9 g of disodium hydrogen phosphate, 0.2 g of potassium chloride, and 0.2 g of potassium dihydrogen phosphate in 1000 mL) supplemented with 1% v/v of Tween80 (polyoxyethylene sorbitan monooleate: manufactured by Kanto Chemical Co., Ltd.) together with the cotton swab. The resulting suspension was serially diluted 10-fold with the PBS, and 0.1 mL thereof was applied to a CHROMagar Malassezia/Candida medium (trade name; peptone, special enzyme substrate mixture, chloramphenicol, olive oil, agar) and cultured at 30° C. for 4 days. After that, the colonies having a pink to purple color were counted, the microbial count score was calculated, and the improvement rate was determined.

SMILES: Cc1cc(-c2nc(C#N)[nH]c2Cl)ccc1Cl [Compound No. 7, 5-chloro-4-(4-chloro-3-methylphenyl)-1H-imidazole-2-carbonitrile]
- Microbial count (cfu/ml) 7 Days after treatment (left ear canal swab): 20 cfu/ml
- Microbial count (cfu/ml) Immediately before treatment (left ear canal swab): 480 cfu/ml
- Total score (redness, earwax, itching, rash) 7 Days after treatment (left ear): 0
- Improvement rate (%) of microbial count (left ear): 95.8%
- Improvement rate (%) of symptom total score (left ear): 100%
- Total score (redness, earwax, itching, rash) Immediately before treatment (left ear): 3
- Microbial count (cfu/ml) 7 Days after treatment (right ear canal swab): 30 cfu/ml
- Microbial count (cfu/ml) Immediately before treatment (right ear canal swab): 160 cfu/ml
- Total score (redness, earwax, itching, rash) 7 Days after treatment (right ear): 0
- Improvement rate (%) of microbial count (right ear): 81.3%
- Improvement rate (%) of symptom total score (right ear): 100%
- Total score (redness, earwax, itching, rash) Immediately before treatment (right ear): 3

SMILES: Cc1ccc(-c2nc(C#N)n(O)c2Cl)cc1 [Compound No. 9, 5-chloro-1-hydroxy-4-(4-methylphenyl)-1H-imidazole-2-carbonitrile]
- Microbial count (cfu/ml) 7 Days after treatment (left ear canal swab): 20 cfu/ml
- Microbial count (cfu/ml) Immediately before treatment (left ear canal swab): 1,100 cfu/ml
- Total score (redness, earwax, itching, rash) 7 Days after treatment (left ear): 1
- Improvement rate (%) of microbial count (left ear): 98.2%
- Improvement rate (%) of symptom total score (left ear): 67%
- Total score (redness, earwax, itching, rash) Immediately before treatment (left ear): 3
- Microbial count (cfu/ml) 7 Days after treatment (right ear canal swab): 30 cfu/ml
- Microbial count (cfu/ml) Immediately before treatment (right ear canal swab): 1,600 cfu/ml
- Total score (redness, earwax, itching, rash) 7 Days after treatment (right ear): 1
- Improvement rate (%) of microbial count (right ear): 98.1%
- Improvement rate (%) of symptom total score (right ear): 67%
- Total score (redness, earwax, itching, rash) Immediately before treatment (right ear): 3
